Data from patent publication US10759835B2, “Monomeric streptavidin mutants, methods of using the same and processes of manufacturing proteins” (The Research Foundation for The State University of New York, priority 2016, dated 2020).

Assay: Fluorescence polarization spectroscopy, biotin dissociation rate (koff)
Assay type: binding
Conditions: 37° C.
Protocol: FIG. 4. In vitro characterization of purified mSA mutants. a) Stability of mSA-RF and mSA-RWT in PBS was measured by circular dichroism spectroscopy with or without biotin. b) Fluorescence polarization spectroscopy was used to measure the dissociation rate of biotin-fluorescein. The dissociation rate, koff, was computed by fitting normalized fluorescence polarization data, or bound fraction f, to an exponentially decaying function, i.e. ƒ=e^−k^off^*t The measurements were taken at 37° C. c) The equilibrium affinity of binding Kd between mSA-RF and biotin-fluorescein was measured by FP. d) mSA-S25H and mSA-RF were analyzed by size exclusion chromatography to estimate their molecular weights in solution. […]
The binding of biotinylated fluorescein (bf, AnaSpec) was measured using a microplate reader (SpectraMax® i3 Microplate reader from Molecular Devices) in flat bottom 96 well plates (Sterilin Ltd). […] After overnight incubation at room temperature, the fluorescence polarization values were measured and fit to the quadratic binding equation (Hsu and Park, 2010, J Mol Graph Model, 29, 295-308). […] To observe dissociation of bf, excess free biotin was added to a final concentration of 100 μM and recording of fluorescence was started immediately. The intensity of polarized fluorescence was measured at various time points and normalized with respect to the value at t=0 min. […]

Substance: Wt SA: wild type streptavidin, tetrameric, SEQ ID NO: 20 [reference compound]
- t1/2 (dissociation half-life t1/2=0.693/koff, biotin-fluorescein): 12.5 ± 4.35 h
- Koff(×10^−3 min^−1) (dissociation of biotin-fluorescein, excess free biotin 100 μM): 0.923 ± 0.0253 ×10^−3 min^−1
